Test results from US9174992B2, “Heterobicyclic compounds” (Amgen Inc., priority 2012, dated 2015).

The compounds below were run against PDE10A (UniProt Q9Y233) (assay: PDE10 enzyme inhibition, IMAP TR-FRET assay (Example A, MPDE10A7 Enzyme Activity and Inhibition)). Conditions: approximate IC50 value, Table 10.
Type: biochemical
Description: Enzyme Activity. An IMAP TR-FRET assay was used to analyze the enzyme activity (Molecular Devices Corp., Sunnyvale Calif.). 10 μL of serial diluted PDE10A (BPS Bioscience, San Diego, Calif.) or tissue homogenate was incubated with equal volumes of diluted fluorescein labeled cAMP or cGMP for 90 min in 384-well Polypropylene assay plates (Greiner, Monroe, N.C.) at room temperature. After incubation, the reaction was stopped by adding 55 μL of diluted binding reagents and was incubated for 4 hours to overnight at room temperature. The plates were read on an Envision (Perkin Elmer, Waltham, Mass.) for time resolved fluorescence resonance energy transfer. The data were analyzed with Genedata Screener® (Lexington, Mass.).
Enzyme Inhibition. To check the inhibition profile, 0.2 μL of serial diluted compounds were incubated with 10 μL of diluted PDE10 enzyme (BPS Bioscience, San Diego, Calif.) or tissue homogenate in a 384-well Polypropylene assay plate (Greiner, Monroe, N.C.) for 60 min at room temperature. After incubation, 10 μL of diluted fluorescein labeled cAMP or cGMP substrate were added and incubated for 90 min at room temperature. The reaction was stopped by adding 55 μL of diluted binding reagents and plates were read on an Envision (Perkin Elmer, Waltham, Mass.) for time resolved fluorescence resonance energy transfer. The data were analyzed with Genedata Screener® (Lexington, Mass.).
IC50 curves were generated from the raw data collected from the […] and fitted with a four-parameter logistic equation using in-house data analysis tool, Activity Base.

| Structure (SMILES) | IC50 |
| --- | --- |
| FC(F)(F)c1nc2cccnc2n1[C@H]1C[C@H](Nc2ncc3ccccc3n2)C1 [Example 12, N-(Trans-3-(2-(trifluoromethyl)-3H-imidazo[4,5-b]pyridin-3-yl)cyclobutyl)quinazolin-2-amine] | 6.9 nM |
| O=c1n(C2CC2)c2cncnc2n1[C@H]1C[C@H](Nc2nc3ccccc3s2)C1 [Example 91, 9-(trans-3-(benzo[d]thiazol-2-ylamino)cyclobutyl)-7-cyclopropyl-7H-purin-8(9H)-one] | 0.469 nM |
| CC1(C)C(=O)N([C@H]2C[C@H](Nc3ccc(F)cn3)C2)c2ncccc21 [Example 54, 1-(Trans-3-((5-fluoropyridin-2-yl)amino)cyclobutyl)-3,3-dimethyl-1H-pyrrolo[2,3-b]pyridin-2(3H)-one] | 6.47 nM |
| CC1(C)C(=O)N([C@H]2C[C@H](Nc3nc4ccccc4o3)C2)c2ncccc21 [Example 168, 1-(trans-3-(benzo[d]oxazol-2-ylamino)cyclobutyl)-3,3-dimethyl-1H-pyrrolo[2,3-b]pyridin-2(3 H)-one] | 0.116 nM |
| Cn1c(=O)n([C@H]2C[C@H](Nc3nc4ccccc4s3)C2)c2ccccc21 [Example 155, 1-(trans-3-(benzo[d]thiazol-2-ylamino)cyclobutyl)-3-methyl-1H-benzo[d]imidazol-2(3H)-one] | 1.67 nM |
| CC1(C)C(=O)N([C@H]2C[C@H](Nc3ccc(C#N)cn3)C2)c2ncccc21 [Example 59, 1-(Trans-3-((5-cyanopyridin-2-yl)amino)cyclobutyl)-3,3-dimethyl-1H-pyrrolo[2,3-b]pyridin-2(3H)-one] | 15.9 nM |
| Cc1csc(N[C@H]2C[C@H](N3C(=O)C(C)(C)c4cccnc43)C2)n1 [Example 203, 3,3-dimethyl-1-(trans-3-((4-methylthiazol-2-yl)amino)cyclobutyl)-1H-pyrrolo[2,3-b]pyridin-2(3H)-one] | 109 nM |
| CC(=O)c1ccc(N[C@H]2C[C@H](N3C(=O)C(C)(C)c4nccnc43)C2)nc1 [Example 84, 5-(trans-3-((5-acetylpyridin-2-yl)amino)cyclobutyl)-7,7-dimethyl-5H-pyrrolo[2,3-b]pyrazin-6(7H)-one] | 23.1 nM |
| Fc1ccc2nc(N[C@H]3C[C@H](n4c(C5CC5)nc5cccnc54)C3)ccc2c1 [Example 7, N-(trans-3-(2-cyclopropyl-3H-imidazo[4,5-b]pyridin-3-yl)cyclobutyl)-6-fluoroquinolin-2-amine] | 1.41 nM |
| CC1(C)C(=O)N([C@H]2C[C@H](Nc3ccnc(Cl)n3)C2)c2ncccc21 [Example 72, 1-(trans-3-((2-cholropyrimidin-4-yl)amino)cyclobutyl)-3,3-dimethyl-1H-pyrrolo[2,3-b]pyridin-2(3H)-one] | 352 nM |
| c1ccc2nc(N[C@H]3C[C@H](n4c(C5CC5)nc5cncnc54)C3)ncc2c1 [Example 13, N-(trans-3-(8-cyclopropyl-9H-purin-9-yl)cyclobutyl)quinazolin-2-amine] | 7.94 nM |
| O=C(c1nc2ccccc2[nH]1)N1CC(n2c(=O)[nH]c3cccnc32)C1 [Example 117, 3-(1-(1H-benzo[d]imidazole-2-carbonyl)azetidin-3-yl)-1H-imidazo[4,5-b]pyridin-2(3H)-one] | 3.26 nM |
| CC1(C)C(=O)N([C@H]2C[C@H](Nc3nc4cccnc4s3)C2)c2nccnc21 [Example 173, 7,7-dimethyl-5-(trans-3-(thiazolo[5,4-b]pyridin-2-ylamino)cyclobutyl)-5H-pyrrolo[2,3-b]pyrazin-6(7H)-one] | 1.49 nM |
| O=c1[nH]c2cncnc2n1[C@H]1C[C@H](Nc2nc3ccccc3s2)C1 [Example 97, 9-(trans-3-(benzo[d]thiazol-2-ylamino)cyclobutyl)-7H-purin-8(9H)-one] | 3.03 nM |
| CC1(C)C(=O)N([C@H]2C[C@H](Nc3ncc(-c4ccccc4)s3)C2)c2ncccc21 [Example 204, 3,3-dimethyl-1-(trans-3-((5-phenylthiazol-2-yl)amino)cyclobutyl)-1H-pyrrolo[2,3-b]pyridin-2(3H)-one] | 2910 nM |
| CC1(C)C(=O)N(C2CCN(c3ccc4cc(F)ccc4n3)CC2)c2nccnc21 [Example 199, 5-(1-(6-fluoroquinolin-2-yl)piperidin-4-yl)-7,7-dimethyl-5H-pyrrolo[2,3-b]pyrazin-6(7H)-one] | 15.1 nM |
| CNC(=O)c1ccc(N[C@H]2C[C@H](N3C(=O)C(C)(C)c4cccnc43)C2)nc1 [Example 29, 6-((trans-3-(3,3-dimethyl-2-oxo-2,3-dihydro-1H-pyrrolo[2,3-b]pyridin-1-yl)cyclobutyl)amino)-N-methylnicotinamide] | 76.7 nM |
| CC1(C)C(=O)N([C@H]2C[C@H](Nc3ccc(Br)cn3)C2)c2nccnc21 [Example 207, 5-(trans-3-((5-bromopyridin-2-yl)amino)cyclobutyl)-7,7-dimethyl-5H-pyrrolo[2,3-b]pyrazin-6(7 H)-one] | 2.39 nM |
| COc1ccc2ccc(N[C@H]3C[C@H](n4c(=O)[nH]c5cccnc54)C3)nc2c1 [Example 105, 3-(trans-3-((7-methoxyquinolin-2-yl)amino)cyclobutyl)-1H-imidazo[4,5-b]pyridin-2(3H)-one] | 35.5 nM |
| COc1nc2cccnc2n1C1CCN(c2nc3ccccc3[nH]2)CC1 [Example 125, 3-(1-(1-H-Benzo[d]imidazol-2-yl)piperidin-4-yl)-2-methoxy-3H-imidazo[4,5-b]pyridine] | 3.79 nM |
| COc1nc2cccnc2n1C1CCN(C(=O)c2nc3ccccc3s2)CC1 [Example 124, Benzo[d]thiazol-2-yl(4-(2-methoxy-3H-imidazo[4,5-b]pyridine-3-yl)piperidin-1-yl)methanone] | 2.64 nM |
| O=c1n(C2CC2)c2cccnc2n1[C@H]1C[C@H](Nc2nc3ccccc3s2)C1 [Example 85, 3-(trans-3-(benzo[d]thiazol-2-ylamino)cyclobutyl)-1-cyclopropyl-1H-imidazo[4,5-b]pyridin-2(3H)-one] | 0.0254 nM |
| O=c1n(C2CC2)c2nccnc2n1[C@H]1CC[C@H](Nc2ccc3ncccc3n2)CC1 [Example 227, 1-(trans-4-((1,5-naphthyridin-2-yl)amino)cyclohexyl)-3-cyclopropyl-1H-imidazo[4,5-b]pyrazin-2(3H)-one] | 1.87 nM |
| Cn1c(=O)n([C@H]2C[C@H](Nc3nc4ccc(F)cc4s3)C2)c2ncccc21 [Example 153, 3-(trans-3-((6-fluorobenzo[d]thiazol-2-yl)amino)cyclobutyl)-1-methyl-1H-imidazo[4,5-b]pyridin-2(3H)-one] | 0.255 nM |

Continued by falling IC50, values first:

| IC50 | Structure (SMILES) |
| --- | --- |
| 57.7 nM | COc1ccc2nc(N[C@H]3C[C@H](n4c(=O)n(C5CC5)c5nccnc54)C3)sc2c1 [Example 224, 1-cyclopropyl-3-(trans-3-((6-methoxybenzo[d]thiazol-2-yl)amino)cyclobutyl)-1H-imidazo[4,5-b]pyrazin-2(3 H)-one] |
| 25.6 nM | O=c1[nH]c2cccnc2n1[C@H]1C[C@H](Nc2ncc3ccccc3n2)C1 [Example 102, 3-(trans-3-(quinazolin-2-ylamino)cyclobutyl)-1H-imidazo[4,5-b]pyridin-2(3H)-one] |
| 17.9 nM | O=c1[nH]c2cccnc2n1[C@H]1C[C@H](Nc2ccc3ccc(F)cc3n2)C1 [Example 101, 3-(trans-3-((7-fluoroquinolin-2-yl)amino)cyclobutyl)-1H-imidazo[4,5-b]pyridin-2(3H)-one] |
| 14.2 nM | c1ccc2sc(N[C@H]3C[C@H](n4cnc5cccnc54)C3)nc2c1 [Example 14, N-(trans-3-(3H-imidazo[4,5-b]pyridin-3-yl)cyclobutyl)benzo[d]thiazol-2-amine] |
| 4.82 nM | O=c1[nH]c2cccnc2n1[C@H]1C[C@H](Nc2nc3c(F)cccc3s2)C1 [Example 98] |
| 4.2 nM | CC1(C)C(=O)N([C@H]2C[C@H](Nc3ccc(C4CC4)cn3)C2)c2nccnc21 [Example 78, 5-(trans-3-((5-cyclopropylpyridin-2-yl)amino)cyclobutyl)-7,7-dimethyl-5H-pyrrolo[2,3-b]pyrazin-6(7H)-one] |
| 2.87 nM | CC1(C)C(=O)N([C@H]2C[C@H](Nc3nc4ccccc4o3)C2)c2nccnc21 [Example 214, 5-(trans-3-(benzo[d]oxazol-2-ylamino)cyclobutyl)-7,7-dimethyl-5H-pyrrolo[2,3-b]pyrazin-6(7H)-one] |
| 2.82 nM | CC1(C)C(=O)N([C@H]2C[C@H](Nc3nc4ccc(F)cc4o3)C2)c2nccnc21 [Example 177, 5-(trans-3-((6fluorobenzo[d]oxazol-2-yl)amino)cyclobutyl)-7,7-dimethyl-5H-pyrrolo[2,3-b]pyrazin-6(7 H)-one] |
| 1.12 nM | Cn1c(O[C@H]2C[C@H](n3c(=O)n(C)c4cccnc43)C2)nc2ccccc21 [Example 144, 1-methyl-3-(trans-3-((1-methyl-1H-benzo[d]imidazol-2-yl)oxy)cyclobutyl)-1H-imidazo[4,5-b]pyridin-2(3H)-one] |
| 1.09 nM | O=c1[nH]c2cccnc2n1[C@H]1C[C@H](Nc2ccc3ccccc3n2)C1 [Example 96, 3-(trans-3-(quinolin-2-ylamino)cyclobutyl)-1H-imidazo[4,5-b]pyridin-2(3H)-one] |
| 1.06 nM | CC1(C)C(=O)N(C2CC(Nc3ccc4ccccc4n3)C2)c2nccnc21 (centres unmarked) [Example 187, 7,7-dimethyl-5-(3-(quinolin-2-ylamino)cyclobutyl)-5H-pyrrolo[2,3-b]pyrazin-6(7 H)-one] |
